Like-named read-outs stand apart in the source and are kept apart here.
Experiments:
[1] = biological target: T1, CYP1A2 (Homo sapiens, UniProt P05177)
T1 sequence (P05177 2-516 limits assumed): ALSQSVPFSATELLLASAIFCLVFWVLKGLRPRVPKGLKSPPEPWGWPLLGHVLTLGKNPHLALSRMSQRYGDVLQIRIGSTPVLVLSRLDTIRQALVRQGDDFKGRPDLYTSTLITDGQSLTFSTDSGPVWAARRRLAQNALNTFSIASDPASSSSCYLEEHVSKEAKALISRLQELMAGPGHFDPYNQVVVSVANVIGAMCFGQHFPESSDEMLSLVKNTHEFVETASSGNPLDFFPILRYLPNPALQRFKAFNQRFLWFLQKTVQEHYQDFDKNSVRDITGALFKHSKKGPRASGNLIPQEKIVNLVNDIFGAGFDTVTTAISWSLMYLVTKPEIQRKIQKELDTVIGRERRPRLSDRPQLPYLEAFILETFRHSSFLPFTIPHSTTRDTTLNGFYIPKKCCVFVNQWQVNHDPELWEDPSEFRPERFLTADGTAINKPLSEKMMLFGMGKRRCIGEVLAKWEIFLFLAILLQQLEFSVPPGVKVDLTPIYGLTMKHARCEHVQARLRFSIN

[2] = biological target: T2, CYP3A4 (Homo sapiens, UniProt P08684)
T2 sequence (P08684 2-503 limits assumed): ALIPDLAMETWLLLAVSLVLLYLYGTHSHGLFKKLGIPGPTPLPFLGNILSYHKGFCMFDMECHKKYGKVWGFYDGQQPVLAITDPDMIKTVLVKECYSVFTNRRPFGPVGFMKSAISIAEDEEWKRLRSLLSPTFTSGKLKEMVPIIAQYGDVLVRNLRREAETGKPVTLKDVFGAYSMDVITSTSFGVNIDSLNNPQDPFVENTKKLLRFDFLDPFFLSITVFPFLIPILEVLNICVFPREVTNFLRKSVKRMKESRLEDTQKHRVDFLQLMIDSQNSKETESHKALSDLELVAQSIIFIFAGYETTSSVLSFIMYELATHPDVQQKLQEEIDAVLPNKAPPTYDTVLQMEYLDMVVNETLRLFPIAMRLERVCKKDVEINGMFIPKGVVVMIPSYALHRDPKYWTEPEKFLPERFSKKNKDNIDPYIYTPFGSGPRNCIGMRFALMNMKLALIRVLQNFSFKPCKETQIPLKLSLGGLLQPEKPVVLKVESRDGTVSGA

[3] = biological target: T2, CYP3A4; remark: listed apart in the source

| Compound | phenacetin metabolite production ([1]; 2 h) [µg] | phenacetin metabolite production ([1]; 48 h) [µg] | yield of main metabolite m(acetaminophen) ([1]; 48 h) [µg] | yield of main metabolite m(6β-OH-T) [2] [µg] | yield of main metabolite (6β-hydroxytestosterone) in 200 μL preparation [3] | yield of main metabolite in 200 μL metabolism preparation [3] [ng] |
| --- | --- | --- | --- | --- | --- | --- |
| CCOc1ccc(NC(C)=O)cc1 [phenacetin] | 17 | 101 | 101 ± 4 |  |  |  |
| C[C@]12CC[C@H]3[C@@H](CCC4=CC(=O)CC[C@@]43C)[C@@H]1CC[C@@H]2O [testosterone] |  |  |  | 17.3 ± 1.4 | up to 100 ng | 100 to 200 |
